From patent publication US10004701B2, “Methods and compositions for treating infection” (UNIVERSITY OF ROCHESTER, priority 2012, dated 2018) come the findings set out here.

Assay [1] concerns Enterococcus faecium 824-05. The assay is described as follows: MIC testing. The assay is classed as cell-based. The settings on record: 82405; Enterococcus faecium 824-05; read-out: MIC.
The next assay relates to E. faecium. The experiment in a line: AK assay 384-well format, Prestwick library screening. The format is cell-based, Enterococcus faecium. The settings on record: E. faecium; 50 μM, cutoff 3-fold increase in AK.
The target in the next assay is T1, S. aureus DNA gyrase (Staphylococcus aureus, UniProt P0A0K8+P20831).
T1 construct: purchased TopoGEN
The experiment in a line: S. aureus DNA gyrase supercoiling assay (TopoGEN). The format is biochemical. As for the experimental part:
Reactions were incubated at 37° C. for 30 min and then stopped by the addition of 10% SDS, filtered through 0.025 μm Millipore membrane filters in a 10 mM Tris-HCl buffer (pH 8), and electrophoresed in a 1% agarose TAE gel. Gels were stained with 0.5 μg/ml ethidium bromide and images were analyzed using densitometry (Image J, NIH).

A further assay has as its system S. aureus. The assay is described as follows: Minimum Inhibitory Concentration (MIC) testing, terfenadine study. The assay is classed as cell-based. The settings on record: Staphylococcus aureus, 16 h.

SMILES strings stand for the structures. ≈ marks a conversion by molar mass, not a printed value.

T1 sequence (P0A0K8 whole entry): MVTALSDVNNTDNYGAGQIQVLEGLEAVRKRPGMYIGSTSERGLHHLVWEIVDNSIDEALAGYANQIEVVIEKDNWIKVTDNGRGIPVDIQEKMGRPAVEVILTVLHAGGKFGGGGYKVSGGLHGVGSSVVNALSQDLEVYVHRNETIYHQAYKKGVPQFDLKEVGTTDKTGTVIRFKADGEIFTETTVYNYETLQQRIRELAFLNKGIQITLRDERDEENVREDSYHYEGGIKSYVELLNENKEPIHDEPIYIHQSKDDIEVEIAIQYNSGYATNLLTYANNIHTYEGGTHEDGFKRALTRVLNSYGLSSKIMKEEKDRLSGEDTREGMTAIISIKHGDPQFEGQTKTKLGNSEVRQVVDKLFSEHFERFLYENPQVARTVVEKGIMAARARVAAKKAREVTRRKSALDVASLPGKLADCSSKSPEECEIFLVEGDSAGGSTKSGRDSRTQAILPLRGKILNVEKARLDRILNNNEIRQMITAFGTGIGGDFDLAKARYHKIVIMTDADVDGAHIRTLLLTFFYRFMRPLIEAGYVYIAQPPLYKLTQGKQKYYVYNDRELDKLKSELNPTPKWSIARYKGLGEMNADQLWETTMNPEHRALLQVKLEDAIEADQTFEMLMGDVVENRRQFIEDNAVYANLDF
T1 sequence (P20831 whole entry): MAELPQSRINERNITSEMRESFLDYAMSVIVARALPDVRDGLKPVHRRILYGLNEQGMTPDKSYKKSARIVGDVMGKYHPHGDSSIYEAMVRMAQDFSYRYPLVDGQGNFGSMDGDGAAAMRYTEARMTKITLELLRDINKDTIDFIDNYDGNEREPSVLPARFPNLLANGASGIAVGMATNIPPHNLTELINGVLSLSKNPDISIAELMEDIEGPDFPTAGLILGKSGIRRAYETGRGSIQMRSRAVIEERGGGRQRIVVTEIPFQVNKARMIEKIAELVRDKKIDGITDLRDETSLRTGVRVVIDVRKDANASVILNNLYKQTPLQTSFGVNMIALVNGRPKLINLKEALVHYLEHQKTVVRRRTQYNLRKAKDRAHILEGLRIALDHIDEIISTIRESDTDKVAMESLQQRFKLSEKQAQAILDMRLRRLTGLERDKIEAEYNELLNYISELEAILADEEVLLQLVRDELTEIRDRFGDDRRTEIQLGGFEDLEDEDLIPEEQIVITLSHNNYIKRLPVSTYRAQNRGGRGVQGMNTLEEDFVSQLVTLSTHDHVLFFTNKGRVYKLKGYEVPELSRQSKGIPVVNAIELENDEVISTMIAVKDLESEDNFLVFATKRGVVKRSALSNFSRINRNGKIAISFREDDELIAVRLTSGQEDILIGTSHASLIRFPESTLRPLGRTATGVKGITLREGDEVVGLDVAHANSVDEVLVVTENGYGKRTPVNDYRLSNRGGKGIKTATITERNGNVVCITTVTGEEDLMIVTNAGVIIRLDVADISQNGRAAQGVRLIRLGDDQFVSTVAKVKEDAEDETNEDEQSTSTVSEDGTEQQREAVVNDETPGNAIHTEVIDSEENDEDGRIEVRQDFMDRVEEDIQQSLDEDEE

Broadly, the MIC is the lowest concentration found to suppress growth. For the molecule `CCN(CC)CCOc1ccc(C(=C(Cl)c2ccccc2)c2ccccc2)cc1` [Clomiphene, clomiphene, reference compound], the MIC in assay [1] was determined as 8 µg/mL (≈ 19.7 µM). Also, the “activity in AK Prestwick screen” value in the assay with E. faecium is “identified”.
For orientation: IC50 means the midpoint of a concentration-inhibition curve. Low values mean greater potency, high ones weaker potency. In the case of `CC(C)(C)c1ccc(CCN2CCC(C(O)(c3ccccc3)c3ccccc3)CC2)cc1` [Compound 23, (1-(4-(Tert-butyl)phenethyl)piperidin-4-yl)diphenylmethanol], half-maximal inhibition against S. aureus DNA gyrase (IC50) required 218 µM. The MIC with S. aureus came out at 8 µg/mL (≈ 18.7 µM).
As for `CC(C)(C)c1ccc(C(=O)CCN2CCC(C(O)(c3ccccc3)c3ccccc3)CC2)cc1` [Compound 21, 1-(4-(tert-butyl)phenyl)-3-(4-(hydroxydiphenylmethyl)piperidin-1-yl)propan-1-one], on S. aureus DNA gyrase, the IC50 was 198 µM. The molecule further came in with an MIC in the assay on S. aureus of 32 µg/mL (≈ 70.2 µM).
With `CC(C)(C)c1ccc(NCCCN2CCC(C(O)(c3ccccc3)c3ccccc3)CC2)cc1` [Compound 41, (1-(3-((4-(Tert-butyl)phenyl)amino)propyl)piperidin-4-yl)diphenylmethanol], on S. aureus DNA gyrase, the IC50 was 423 µM. For the same molecule, the minimal inhibitory concentration (MIC) against S. aureus was determined as 8 µg/mL (≈ 17.5 µM).
For `CC(C)(C)c1cccc(CCN2CCC(C(O)(c3ccccc3)c3ccccc3)CC2)c1` [Compound 39, (1-(3-(Tert-butyl)phenethyl)piperidin-4-yl)diphenylmethanol], in that order: 218 µM and 16 µg/mL (≈ 37.4 µM).
`COC(=O)c1ccc(C(O)CCCN2CCC(C(O)(c3ccccc3)c3ccccc3)CC2)cc1` (centres unmarked) [Compound 18, Methyl 4-(1-hydroxy-4-(4-(hydroxydiphenylmethyl)piperidin-1-yl)butyl)benzoate] showed an IC50 against S. aureus DNA gyrase of 929 µM. The molecule also yielded an MIC with S. aureus of 256 µg/mL (≈ 541 µM).
For `CC(C)(C)c1ccc(CCN2CCC(C(O)(c3ccccc3)c3ccccc3)CC2)cn1` [Compound 43, (1-(2-(6-(Tert-butyl)pyridin-3-yl)ethyl)piperidin-4-yl)diphenylmethanol], on S. aureus DNA gyrase, the IC50 is > 777 µM. This molecule also showed an MIC against S. aureus of 64 µg/mL (≈ 149 µM).
`CC(C)(C)c1ccc(CCCCN2CCC(C(O)(c3ccccc3)c3ccccc3)CC2)cc1` [Compound 10, (1-(4-(4-(tert-butyl)phenyl)butyl)piperidin-4-yl)diphenylmethanol] had an IC50 against S. aureus DNA gyrase of 205 µM. This molecule also yielded an MIC against S. aureus of 8 µg/mL (≈ 17.6 µM).
For `OC(c1ccccc1)(c1ccccc1)C1CCN(CCc2ccc(Br)cc2)CC1` [Compound 30, (1-(4-bromophenethyl)piperidin-4-yl)diphenylmethanol], the IC50 on S. aureus DNA gyrase is 548 µM. It took 16 µg/mL (≈ 35.5 µM) to inhibit growth against S. aureus (MIC).
Turning to `CC(C)(C)c1ccc(CCCN2CCC(C(O)(c3ccccc3)c3ccccc3)CC2)cc1` [Compound 22, (1-(3-(4-(Tert-butyl)phenyl)propyl)piperidin-4-yl)diphenylmethanol], the IC50 against S. aureus DNA gyrase was 211 µM. This molecule gave an MIC against S. aureus of 8 µg/mL (≈ 18.1 µM).
Turning to `OC(CCCN1CCC(C(O)(c2ccccc2)c2ccccc2)CC1)c1ccc(F)cc1` (centres unmarked) [Compound 8, 1-(4-fluorophenyl)-4-(4-(hydroxydiphenylmethyl)piperidin-1-yl)butan-1-ol], the IC50 at S. aureus DNA gyrase is > 1150 µM. In the assay on S. aureus, this molecule registered an MIC of 128 µg/mL (≈ 295 µM).
Molecule `OC(c1ccccc1)(c1ccccc1)C1CCN(CCc2ccc(-c3cccnc3)cc2)CC1` [Compound 35, Diphenyl(1-(4-(pyridin-3-yl)phenethyl)piperidin-4-yl)methanol] gave an IC50 at S. aureus DNA gyrase of 557 µM. In addition, the MIC with S. aureus amounted to 32 µg/mL (≈ 71.3 µM).
As to `OC(c1ccccc1)(c1ccccc1)C1CCN(CCc2ccc(F)cc2)CC1` [Compound 38, (1-(4-Fluorophenethyl)piperidin-4-yl)diphenylmethanol], the IC50 at S. aureus DNA gyrase is > 855 µM. This molecule also returned a minimal inhibitory concentration (MIC) against S. aureus of 128 µg/mL (≈ 329 µM).
